In US12324807B2, “Combination therapy for PI3K-associated disease or disorder” (Cornell University, priority 2018, dated 2025):
pIC50: −log10 of the molar value.

Key:
IGF1R/INSR = conditions: from Selleck Chem website; read-out: IC50 of primary target; cited from earlier work
[1] = system: PIK3CA+MYC mutant murine breast tumor allografts, ES-278; test: ES-278 breast tumor allografts with or without keto diet; type: in vivo, mice; conditions: combined with ketogenic diet
Description: For solid tumor studies, Nude (genotype) and C57/BL6 mice were purchased at 8 weeks of age from Jackson laboratories (Bar Harbor, ME).

[2] = system: ES272 Pik3ca mutant breast cancer allograft; test: Pik3ca mutant breast allografts, ketogenic diet, BYL-719 and exogenous insulin; type: in vivo, mice; conditions: 0.4 mU insulin 15 minutes after each dose of PI3K inhibitor
Procedure: To further test whether the improved response to PI3K inhibitors while on a ketogenic diet is a consequence of lowering blood insulin levels, the inventors attempted to “rescue” the PI3K reactivation using exogenous insulin. A cohort of the mice bearing Pik3ca mutant breast allografts were treated with the combination of a ketogenic diet and BYL-719, and then given 0.4 mU of insulin 15 minutes after each dose of PI3K inhibitor (FIG. 4B).

[3] = system: BT-549 breast cancer cells; test: proliferation in minimal growth media with BKM120 and insulin; type: cell-based, Human; conditions: insulin 10 ng/ml
KPC allografted tumors = type: in vivo; conditions: insulin added to ketogenic diet plus BYL-719
[4] = system: PC-3 prostate adenocarcinoma cells; test: proliferation in minimal growth media with BKM120 and insulin; type: cell-based; conditions: insulin 10 ng/ml
KPC cells = test: signaling and proliferation of KPC cells with PI3K inhibitor and insulin; type: cell-based, Mouse
Procedure: To test whether or not these spikes in insulin were stimulating PI3K signaling in the context of PI3K inhibition, KPC cells were treated in vitro with the PI3K inhibitors in the presence or absence of 10 ng/ml insulin, the level observed in the mice within 15-30 min after drug administration (FIG. 1D).
For signaling assays, cells were washed 1× in PBS and placed in starvation media (−FBS) for 6-18 hours depending upon cell line and treated 1 hour prior to harvesting with PI3K inhibitors as indicated alone or in combination with insulin 10 minutes prior to harvesting. Three-dimensional culture and dose response experiments of patient derived organoids were run as previously described. In brief, ˜1000 cells were plated in 10 ul of 1:1 matrigel to culture media in 96 well angiogenesis plates and allowed to solidify for 30 min at 37 degrees before 70 ul of culture media was added. Organoids were then treated in triplicate in a log scale dose response and CellTiter-Glo assay (Promega) was run at 96 hours to determine the IC50 values. Knockdown of insulin receptor was achieved using a doxycycline inducible shRNA strategy. For generation of miR-E shRNAs, 97-mer oligonucleotides were purchased (IDT Ultramers) coding for predicted shRNAs using an siRNA predictional tool Splash RNA (see website at splashrna.mskcc.org/).

[5] = system: MDA-MB-468 breast cancer cells; test: proliferation in minimal growth media with BKM120 and insulin; type: cell-based, Human; conditions: insulin 10 ng/ml
[6] = system: HCT116 PTEN knockout (KO) cells; test: proliferation with PI3K inhibitors and insulin; type: cell-based, Human; conditions: insulin 10 ng/ml in presence of PI3K inhibitors GDC-0032, BYL-719
[7] = system: MLL-AF9 driven Acute Myeloid Leukemia; test: syngeneic model of AML treated with BKM120 and ketogenic diet; type: in vivo, mice; conditions: BKM120 with ketogenic diet started before or with BKM120
Procedure: For AML studies, 10-12 weeks old male C57BL/6J mice were used for MLL-AF9 Ds-Red AML study (Approved protocol AC-AAAQ5405). For pre-treatment study with MLL-AF9 Ds-Red cells, keto and Keto/BKM group mice were given a ketogenic diet for 10 days prior to injection with MLL-AF9 Ds-Red cells (2×10^5 per mouse in 200 ul) via lateral tail vein. The day after iv injection, the mice were given 0.5% carboxymethyl cellulose (CMC) as vehicle control or BKM120 (37.5 mg/kg) by oral gavage for two weeks (5 out of 7 days). The mice were euthanized after two-week treatment to check the bone marrow for AML progress. The tumor progress was also monitored via IVIS spectrum machine.
For co-current treatment studies with MLL-AF9 Ds-Red cells, the mice were injected with MLL-AF9 Ds-Red cells (2×10^5 per mouse in 200 ul) via lateral tail vein. The day after iv injection, the mice were given vehicle or BKM120 (37.5 mg/kg) by oral gavage for two weeks. The Keto or Keto/BKM group were changed to a ketogenic diet on the same day. The mice were euthanized after two-week treatment to check the bone marrow for AML progress.
To check if Keto/BKM treatment affects the AML engraftment, Keto and Keto/BKM group mice were given a ketogenic diet for 10 days, then treated with vehicle or BKM120 by oral gavage for two weeks. […]

tumor models = test: drug efficacy of PI3K pathway agents with modulation of glucose metabolism in murine tumor models; type: in vivo, mice
KPC allografts = KPC allografts treated with BKM120 and OSI-906; type: in vivo, mice; conditions: BKM120 combined with OSI-906, vs either drug alone
KPC K8484 tumors = test: KPC K8484 allografts treated with BYL-719 alone or combined: tumor response and survival; type: in vivo, mice
AKT1/2/3 = conditions: from Selleck Chem website; read-out: IC50 of primary target; cited from earlier work
[8] = system: syngeneic K8484 KPC allografted tumors; test: glucose/insulin feedback after single dose of BKM120 in mice with KPC allografts; type: in vivo; conditions: pretreatment before a single treatment with BKM120; for insulin released in response to BKM120 (c-peptide): c-peptide after 3 hours; for growth signaling through mTORC1 in the tumor (pS6): tumors harvested at 90 minutes
SGLT-2 = SGLT-2 (Homo sapiens (Human), UniProt P31639); conditions: read-out: IC50 of primary target; from Selleck Chem website; cited from earlier work

C[C@]1(O)C[C@@H](c2nc(-c3ccc4ccc(-c5ccccc5)nc4c3)c3c(N)nccn32)C1 [Linsitinib]
pIC50 (IGF1R/INSR): 7.46 | treatment efficacy (tumor volume) [1]: significantly improved

insulin
therapeutic benefit of ketogenic diet plus BYL-719 [2]: dramatically reduced the therapeutic benefit | growth (proliferation) [3]: partially rescued | tumor growth (KPC allografted tumors): rescued tumor growth | growth (proliferation) [4]: partially rescued | PI3K signaling (pAKT, pS6) (KPC cells; 10 ng/ml insulin in continued presence of PI3K inhibitors): partially rescue PI3K signaling | cellular proliferation (KPC cells; 10 ng/ml insulin with BKM120 (1 uM)): partial recovery of cellular proliferation | growth (proliferation) [5]: partially rescued | proliferation (percent confluence) [6]: restore normal proliferation

Nc1cc(C(F)(F)F)c(-c2cc(N3CCOCC3)nc(N3CCOCC3)n2)cn1 [Buparlisib]
efficacy (survival) [7]: significantly enhanced | drug efficacy (tumor models): improved drug efficacy | growth of KPC allografts (KPC allografts): more effective response on the growth of KPC allografts than either drug alone

Cc1c(CN2CCN(C(=O)[C@H](C)O)CC2)sc2c(N3CCOCC3)nc(-c3cnc(N)nc3)nc12 [Apitolisib]
drug efficacy (tumor models): improved drug efficacy

Cc1nc(NC(=O)N2CCC[C@H]2C(N)=O)sc1-c1ccnc(C(C)(C)C(F)(F)F)c1 [Apelisib, Alpelisib]
response of KPC allografts (KPC K8484 tumors; BYL-719 combined with metformin, SGLT2i or ketogenic diet, concordant with ability to reduce serum insulin): enhanced response of KPC allografts | drug efficacy (tumor models): improved drug efficacy

NC1(c2ccc(-c3nc4ccn5c(=O)[nH]nc5c4cc3-c3ccccc3)cc2)CCC1 [MK2206]
pIC50 (AKT1/2/3): 8.10

CN(C)C(=N)NC(=N)N [metformin, Metformin]
PI3K inhibitor-induced elevation in blood glucose (hyperglycemia) [8]: only minimal impact | insulin released in response to BKM120 (c-peptide) [8]: only minimal impact | growth signaling through mTORC1 in the tumor (pS6) [8]: only minimal impact

CS(=O)(=O)N1CCN(Cc2cc3nc(-c4cccc5[nH]ncc45)nc(N4CCOCC4)c3s2)CC1 [Pictilisib]
drug efficacy (tumor models): improved drug efficacy

COc1c(OCCCN2CCOCC2)ccc2c1N=C(NC(=O)c1cnc(N)nc1)N1CCN=C21 [Copanilisib, Copanlisib]
drug efficacy (tumor models): improved drug efficacy

Cc1ccc([C@@H]2OC(CO)[C@@H](O)C(O)C2O)cc1Cc1ccc(-c2ccc(F)cc2)s1 (some centres unmarked) [Conagliflozin, Canagliflozin]
pIC50 (SGLT-2): 8.66

Cc1nc(-c2cn3c(n2)-c2ccc(-c4cnn(C(C)(C)C(N)=O)c4)cc2OCC3)n(C(C)C)n1 [Taselisib]
drug efficacy (tumor models): improved drug efficacy | treatment efficacy (tumor volume) [1]: significantly improved

Cc1ccc([C@@H]2O[C@H](CO)[C@@H](O)[C@H](O)[C@H]2O)cc1Cc1ccc(-c2ccc(F)cc2)s1 [Conagliflozin, Canagliflozin]
overall survival (KPC K8484 tumors; added to treatment with BYL-719, vs BYL-719 alone): increases overall survival | PI3K inhibitor-induced elevation in blood glucose (hyperglycemia) [8]: decreased the resulting hyperglycemia | insulin released in response to BKM120 (c-peptide) [8]: reduced the total insulin that was released | growth signaling through mTORC1 in the tumor (pS6) [8]: reduced signaling through mTORC1 in the tumor
